Results taken from publication PMC12040169 (PLOS Biology, 2025).

Assay: in vitro
Settings: human, hela cells, % viability

SMILES	viability at 28.5 h, 10 µM [%]
COc1ccc(C(=O)NNS(=O)(=O)N(C)C)cc1OC [CBK267697]	99.1
CCOC(=O)c1c(-c2ccc(C)o2)csc1NC(=O)CN1C(=O)c2ccccc2C1=O [CBK267699]	85.1
CC(C)(O)C#Cc1ccc(C(=O)NC(CSCc2ccccc2)C(=O)O)s1 (stereo not shown) [CBK267705]	98.4
N=C(N)NC(=N)NCCc1c[nH]c2ccccc12 [CBK267706G]	89.3
Cn1c(=O)c2c(nc(N3CCOCC3)n2CC/N=C2/CCCN2)n(C)c1=O [CBK267709C]	85.9
CN(C)CCn1c2c(c3ccccc31)CCCn1nnnc1-2 [CBK267713C]	94.8
Cc1ccc(-n2c(SCC(=O)NC(C)Cc3ccccc3)nc3sc4c(c3c2=O)CC(C)(C)OC4)cc1 (stereo not shown) [CBK267714]	94.7
CSc1nc(SCC(=O)N(c2ccccc2)c2ccccc2)c2c3c(sc2n1)CCC3 [CBK267715]	90.6
CC(NS(=O)(=O)c1cccc2c(S(=O)(=O)NC(C)c3ccccc3)cccc12)c1ccccc1 (stereo not shown) [CBK267717]	83.6
O=C(Nc1cccc(S(=O)(=O)N2CCOCC2)c1)c1cc(-c2cccnc2)nc2ccc(Cl)cc12 [CBK267720]	98
COc1cc2c(cc1NC(=O)c1cc(-c3cccnc3)nc3ccc(C)cc13)oc1ccccc12 [CBK267722]	92.1
O=C(Nc1ccc(N2CCOCC2)c2nonc12)c1cc(-c2cccnc2)nc2ccc(Cl)cc12 [CBK267724]	89.8
O=C(Nc1ccc(C(=O)N2CCOCC2)cc1)c1cc(-c2cccnc2)nc2ccc(Cl)cc12 [CBK267725]	93
NS(=O)(=O)c1ccc(CNC(=O)c2cc(-c3cccnc3)nc3ccc(Cl)cc23)cc1 [CBK267727]	83.8
CN(C)CCNC(=O)c1cc(-c2ccncc2)nc2ccc(Br)cc12 [CBK267728]	103
CN1CCN(NC(=O)c2cc(-c3cccnc3)nc3ccc(Cl)cc23)CC1 [CBK267729]	110

SMILES	viability at 28.5 h, 10 µM [%]
CN1CCN(S(=O)(=O)c2ccc(NC(=O)c3cc(-c4ccncc4)nc4ccc(Cl)cc34)cc2)CC1 [CBK267730]	98.6
Cc1c(Cl)ccc2c(C(=O)NCCCn3cc(Br)cn3)cc(-c3ccncc3)nc12 [CBK267731]	95.1
Cc1ccc2nc(-c3ccncc3)cc(C(=O)Nc3ccc(C(F)(F)F)cc3)c2c1 [CBK267732]	91.6
CN1CCN(S(=O)(=O)c2ccc(NC(=O)c3cc(-c4cccnc4)nc4ccc(Cl)cc34)cc2)CC1 [CBK267734]	94.2
CNS(=O)(=O)c1ccc(NC(=O)c2cc(-c3ccc4c(c3)OCO4)nc3ccccc23)cc1 [CBK267735]	99
Cc1ccc2nc(-c3ccncc3)cc(C(=O)N3CCN(C4CCCCC4)CC3)c2c1 [CBK267736]	96.4
Cc1cc(-c2cc(C(=O)NN3CCN(C)CC3)c3cc(Cl)ccc3n2)c(C)s1 [CBK267738]	102
NS(=O)(=O)c1ccc(CNC(=O)c2cc(-c3cccnc3)nc3ccc(Br)cc23)cc1 [CBK267740]	96.9
Cc1ccccc1-c1cc(C(=O)Nc2ccc(S(N)(=O)=O)cc2)c2cc(Cl)ccc2n1 [CBK267741]	90
Cc1cccc2c(C(=O)NCc3ccc(S(N)(=O)=O)cc3)cc(-c3ccccc3Cl)nc12 [CBK267743]	93
CC1CCc2c(sc(NC(=O)c3cc(-c4ccccn4)nc4c(Cl)cccc34)c2C(N)=O)C1 (stereo not shown) [CBK267744]	94.1
CC(=O)Nc1cccc(NC(=O)c2cc(-c3ccccn3)nc3ccc(Cl)cc23)c1 [CBK267747]	95.1
O=C(c1cc(-c2ccncc2)nc2ccc(Cl)cc12)N1CCN(c2ccc([N+](=O)[O-])cc2)CC1 [CBK267748]	83.8
COc1ccc(S(=O)(=O)N2CCN(C(=O)c3cc(-c4ccncc4)nc4ccc(Br)cc34)CC2)cc1 [CBK267750]	101
Cc1ccc2nc(-c3ccncc3)cc(C(=O)N3CCN(c4ncccn4)CC3)c2c1 [CBK267751]	93
